The source of these data is ChEMBL document CHEMBL5113408, “Design, synthesis and antitumour activity of novel 5(6)-amino-benzimidazolequinones containing a fused morpholine” (Eur J Med Chem, 2022).

pIC50: −log10 of the molar value.

Common to all, as to format: functional, cell-based
Test [1] relates to HeLa. Kind of test: Antiproliferative activity against human HeLa cells assessed as inhibition of cell growth by SRB assay.
Test [2] deals with ECa-109 cell line. The experiment in a line: Antiproliferative activity against human EC109 cells assessed as inhibition of cell growth by SRB assay. Background: Sulforhodamine B stains cellular protein and so reports cell mass.
The subject of test [3] is MCF7. Kind of test: Antiproliferative activity against human MCF7 cells assessed as inhibition of cell growth by SRB assay.
In test [4] the test system is MGC-803. Kind of test: Antiproliferative activity against human MGC-803 cells assessed as inhibition of cell growth by SRB assay.

`O=C1C=C(N2CCCC2)C(=O)c2c1nc1n2[C@H]2OC[C@@H](O)[C@H]2OC1`: the negative-log IC50 (pIC50) in test [1], in test [2], in test [3] and in test [4] was below 4.80 in each case.

Turning to `CCCc1ccc(NC2=CC(=O)c3c(nc4n3[C@H]3OC[C@@H](O)[C@H]3OC4)C2=O)cc1`, the pIC50 (as a rule, the negative decadic logarithm of the IC50, by convention in mol/L) in test [1] was 5.22; in test [2] it was below 5.40; in test [3], below 5.40; in test [4], 5.72.

Regarding `COc1cccc(NC2=CC(=O)c3nc4n(c3C2=O)[C@H]2OC[C@@H](O)[C@H]2OC4)c1`, the pIC50 was 5.37 in test [1], 5.12 in test [2], below 5.40 in test [3] and 5.75 in test [4].

On to `Cc1ccc(NC2=CC(=O)c3nc4n(c3C2=O)C[C@@H]([C@H](O)CO)OC4)cc1`, for which the pIC50 in test [1] was 5.41; in test [2], 5.10; in test [3], 4.97; in test [4], 5.32.

As for `O=C1C(Nc2ccc(Br)cc2)=CC(=O)c2c1nc1n2C[C@@H]([C@H](O)CO)OC1`, the pIC50 in test [1] is 5.10; in test [2], 5.45; in test [3], 5.30; in test [4], 5.56.

As for `CCCN(CCC)C1=CC(=O)c2c(nc3n2[C@H]2OC[C@@H](O)[C@H]2OC3)C1=O`, the negative logarithm of the IC50 (pIC50) in test [1], in test [2], in test [3] and in test [4] was below 4.80 each time.

Take `CCCc1ccc(NC2=CC(=O)c3nc4n(c3C2=O)[C@H]2OC[C@@H](O)[C@H]2OC4)cc1`: the pIC50 in test [1] is 5.30; in test [2], below 5.40; in test [3], 5.33; in test [4], 5.81.

On to `O=C1C(Nc2ccccc2F)=CC(=O)c2c1nc1n2C[C@@H]([C@H](O)CO)OC1`, for which the negative logarithm of the IC50 (pIC50) in test [1] is below 4.80; in test [2], 5.26; in test [3], 5.29; in test [4] it was 5.43.

Consider `COc1ccc(NC2=CC(=O)c3c(nc4n3C[C@@H]([C@H](O)CO)OC4)C2=O)cc1`, for which the pIC50 in test [1] was 5.09; in test [2], 4.97; in test [3] it was 4.94; in test [4], 5.17.

As to `O=C1C=C(Nc2ccc(I)cc2)C(=O)c2c1nc1n2C[C@@H]([C@H](O)CO)OC1`, the negative-log IC50 (pIC50) was 5.44 in test [1], 5.24 in test [2], 5.11 in test [3] and 5.49 in test [4].

For the compound `Cc1ccc(NC2=CC(=O)c3nc4n(c3C2=O)[C@H]2OC[C@@H](O)[C@H]2OC4)cc1`, the pIC50 in test [1] was 5.41; in test [2] it was 5.46; in test [3], 5.78; in test [4], 5.85.

Regarding `CCc1ccc(NC2=CC(=O)c3nc4n(c3C2=O)C[C@@H]([C@H](O)CO)OC4)cc1`, the pIC50 in test [1] is 5.62; in test [2], 5.31; in test [3] it was 5.17; in test [4], 5.54.

In the case of `CCc1ccc(NC2=CC(=O)c3c(nc4n3C[C@@H]([C@H](O)CO)OC4)C2=O)cc1`, the negative logarithm of the IC50 (pIC50) in test [1] was 5.34; in test [2], 5.34; in test [3], 5.18; in test [4], 5.43.

For `O=C1C(Nc2ccc(I)cc2)=CC(=O)c2c1nc1n2C[C@@H]([C@H](O)CO)OC1`, the negative-log IC50 (pIC50) was 5.26 in test [1], 5.50 in test [2], 5.29 in test [3] and 5.61 in test [4].

Consider `CCOc1ccc(NC2=CC(=O)c3nc4n(c3C2=O)C[C@@H]([C@H](O)CO)OC4)cc1`, for which the pIC50 in test [1] was 5.39; in test [2], 5.01; in test [3], 4.95; in test [4] it was 5.37.

As to `COc1cccc(NC2=CC(=O)c3nc4n(c3C2=O)C[C@@H]([C@H](O)CO)OC4)c1`, the negative-log IC50 (pIC50) was 5.08 in test [1], below 4.80 in test [2], below 4.80 in test [3] and 5.03 in test [4].

Consider `O=C1C=C(NC2CC2)C(=O)c2c1nc1n2C[C@@H]([C@H](O)CO)OC1`, for which the negative logarithm of the IC50 (pIC50) in test [1], in test [2], in test [3] and in test [4] was below 4.80 in each case.

Regarding `COc1ccccc1NC1=CC(=O)c2nc3n(c2C1=O)C[C@@H]([C@H](O)CO)OC3`, the pIC50 was 5.19 in test [1], below 4.80 in test [2], below 4.80 in test [3] and 5.18 in test [4].

As for `CCOc1ccc(NC2=CC(=O)c3c(nc4n3[C@H]3OC[C@@H](O)[C@H]3OC4)C2=O)cc1`, the pIC50 is 4.84 in test [1], below 5.40 in test [2], below 5.40 in test [3] and 5.68 in test [4].

`O=C1C=C(Nc2cccc(Cl)c2)C(=O)c2c1nc1n2[C@H]2OC[C@@H](O)[C@H]2OC1`: the pIC50 was 5.22 in test [1], 5.33 in test [2], 5.33 in test [3] and 5.75 in test [4].

As to `CCCN(CCC)C1=CC(=O)c2nc3n(c2C1=O)[C@H]1OC[C@@H](O)[C@H]1OC3`, the pIC50 in test [1], in test [2], in test [3] and in test [4] was below 4.80 throughout.

As for `O=C1C=C(Nc2ccccc2)C(=O)c2c1nc1n2C[C@@H]([C@H](O)CO)OC1`, the pIC50 was 5.22 in test [1], below 4.80 in test [2], below 4.80 in test [3] and 5.09 in test [4].

On to `CCOc1ccc(NC2=CC(=O)c3nc4n(c3C2=O)[C@H]2OC[C@@H](O)[C@H]2OC4)cc1`, for which the negative-log IC50 (pIC50) is 5.51 in test [1], 5.49 in test [2], 5.84 in test [3] and 5.95 in test [4].

As for `CCc1ccc(NC2=CC(=O)c3nc4n(c3C2=O)[C@H]2OC[C@@H](O)[C@H]2OC4)cc1`, the negative-log IC50 (pIC50) in test [1] is 5.40; in test [2] it was 5.51; in test [3], 6.02; in test [4] it was 5.89.

Take `O=C1C(Nc2ccc(C(F)(F)F)cc2)=CC(=O)c2c1nc1n2[C@H]2OC[C@@H](O)[C@H]2OC1`: the negative logarithm of the IC50 (pIC50) in test [1] was 5.05; in test [2], 5.65; in test [3], below 5.40; in test [4], 5.73.

Take `O=C1C=C(Nc2ccc(I)cc2)C(=O)c2c1nc1n2[C@H]2OC[C@@H](O)[C@H]2OC1`: the pIC50 in test [1] was 5.39; in test [2], 5.64; in test [3], 5.65; in test [4] it was 5.85.

Regarding `CCCc1ccc(NC2=CC(=O)c3c(nc4n3C[C@@H]([C@H](O)CO)OC4)C2=O)cc1`, the negative-log IC50 (pIC50) is 5.21 in test [1], 5.29 in test [2], 5.03 in test [3] and 5.33 in test [4].

Regarding `O=C1C=C(Nc2cccc(F)c2)C(=O)c2c1nc1n2C[C@@H]([C@H](O)CO)OC1`, the negative logarithm of the IC50 (pIC50) in test [1] is 5.18; in test [2], 5.10; in test [3], below 4.80; in test [4], 5.35.

Turning to `Cc1ccc(NC2=CC(=O)c3c(nc4n3C[C@@H]([C@H](O)CO)OC4)C2=O)cc1`, the negative-log IC50 (pIC50) in test [1] was 5.23; in test [2], 5.29; in test [3], 5.13; in test [4], 5.39.

Turning to `COc1ccc(NC2=CC(=O)c3c(nc4n3[C@H]3OC[C@@H](O)[C@H]3OC4)C2=O)cc1`, the pIC50 in test [1] was below 5.10; in test [2], 5.47; in test [3], 5.35; in test [4], 5.67.

`O=C1C=C(Nc2ccc(C(F)(F)F)cc2)C(=O)c2c1nc1n2[C@H]2OC[C@@H](O)[C@H]2OC1`: the negative-log IC50 (pIC50) in test [1] was below 5.10; in test [2], 5.26; in test [3] it was below 5.40; in test [4], 5.55.

With `COc1ccc(NC2=CC(=O)c3nc4n(c3C2=O)C[C@@H]([C@H](O)CO)OC4)cc1`, the pIC50 in test [1] was 5.15; in test [2], below 4.80; in test [3] it was below 4.80; in test [4] it was 5.05.

For `O=C1C(N2CCCCC2)=CC(=O)c2c1nc1n2[C@H]2OC[C@@H](O)[C@H]2OC1`, the pIC50 in test [1] is below 4.80; in test [2] it was below 5.10; in test [3] it was below 5.10; in test [4] it was below 5.40.

Take `CCOc1ccccc1NC1=CC(=O)c2c(nc3n2[C@H]2OC[C@@H](O)[C@H]2OC3)C1=O`: the pIC50 in test [1] was 5.08; in test [2], 5.36; in test [3], below 5.40; in test [4] it was 5.55.

Turning to `O=C1C=C(Nc2ccccc2F)C(=O)c2c1nc1n2[C@H]2OC[C@@H](O)[C@H]2OC1`, the negative-log IC50 (pIC50) is 5.29 in test [1], 5.56 in test [2], 5.44 in test [3] and 5.68 in test [4].

For `COc1ccccc1NC1=CC(=O)c2c(nc3n2[C@H]2OC[C@@H](O)[C@H]2OC3)C1=O`, the pIC50 is 5.13 in test [1], below 5.40 in test [2], 5.18 in test [3] and 5.78 in test [4].

Take `CN(C)C1=CC(=O)c2c(nc3n2[C@H]2OC[C@@H](O)[C@H]2OC3)C1=O`: the pIC50 in test [1], in test [3] and in test [4] was below 4.80 throughout.

`O=C1C(NC2CC2)=CC(=O)c2c1nc1n2[C@H]2OC[C@@H](O)[C@H]2OC1`: the results for the pIC50 in test [1], in test [3] and in test [4] were below 4.80, below 4.80 and below 5.40, respectively.

Consider `O=c1[nH]cc(F)c(=O)[nH]1` [FLUOROURACIL], for which the negative-log IC50 (pIC50) in test [1] is 4.61; in test [2], 4.94; in test [4], 4.99.

Consider `CCN(CC)C1=CC(=O)c2c(nc3n2[C@H]2OC[C@@H](O)[C@H]2OC3)C1=O`, for which the pIC50 in test [1], in test [3] and in test [4] was below 4.80 throughout.

For `O=C1C(N2CCOCC2)=CC(=O)c2c1nc1n2[C@H]2OC[C@@H](O)[C@H]2OC1`, the pIC50 in test [1] was below 4.80; in test [3], below 4.80; in test [4], below 5.40.
